Measured values: patent publication US20220289794A1, “SYNTHETIC ANTIMICROBIAL PEPTIDES” (priority 2019, published 2022)
In brackets after ≈: the same amount, converted by molar mass. Non-standard residues stand in square brackets, D forms with d. Residues, ends and D or L forms follow the SMILES beside them. Dip = N[C@H](C(=O)O)C(c1ccccc1)c1ccccc1; 2Nal = N[C@@H](Cc1ccc2ccccc2c1)C(=O)O; d2Nal = N[C@H](Cc1ccc2ccccc2c1)C(=O)O; Dab = NCC[C@H](N)C(=O)O

Tests used:
[1] = test system: Escherichia coli (ATCC 25922); conditions: ATCC 25922
[2] = test system: human red blood cells; design: unit not given beside the values
[3] = test system: S. aureus ATCC 29213; conditions: ATCC 29213
[4] = test system: Methicillin-resistant Staphylococcus aureus MRSA (ATCC BAA-1556); conditions: ATCC BAA-1556
[5] = test system: Pseudomonas aeruginosa (ATCC 27883); conditions: ATCC 27883

C[C@@H]1NC(=O)[C@H](C)NC(=O)[C@H](CCCNC(=N)N)NC(=O)[C@H](CCCNC(=N)N)NC(=O)[C@H](CCCNC(=N)N)NC(=O)[C@H](CCCNC(=N)N)NC(=O)[C@H](C)NC(=O)[C@H](C)NC(=O)[C@H](Cc2c[nH]c3ccccc23)NC(=O)[C@H](Cc2c[nH]c3ccccc23)NC(=O)[C@H](Cc2c[nH]c3ccccc23)NC(=O)[C@H](Cc2c[nH]c3ccccc23)NC1=O [IFX-045] (cyclo(AARRRRAAWWWW))
MIC E. coli ATCC 25922 [1]: 50 µg/mL (≈ 30.2 µM)
HC50 [2]: 390
MIC S. aureus ATCC 29213 [3]: 25 µg/mL (≈ 15.1 µM)
MIC MRSA ATCC BAA-1556 [4]: 25 µg/mL (≈ 15.1 µM)
MIC P. aeruginosa ATCC 27883 [5]: 50 µg/mL (≈ 30.2 µM)

N=C(N)NCCC[C@H](NC(=O)[C@H](CCCNC(=N)N)NC(=O)[C@H](CCCNC(=N)N)NC(=O)[C@@H](N)CCCNC(=N)N)C(=O)N[C@@H](Cc1ccc2ccccc2c1)C(=O)N[C@@H](Cc1ccc2ccccc2c1)C(=O)N[C@@H](Cc1ccc2ccccc2c1)C(=O)O [IFX-009-1, NH2-Arg-Arg-Arg-Arg-NaI-NaI-NaI-OH] (H-RRRR[2Nal][2Nal][2Nal]-OH)
MIC E. coli ATCC 25922 [1]: 12.5 µg/mL (≈ 10.1 µM)
HC50 [2]: 260
MIC S. aureus ATCC 29213 [3]: 3.1 µg/mL (≈ 2.51 µM)
MIC MRSA ATCC BAA-1556 [4]: 3.1 µg/mL (≈ 2.51 µM)
MIC P. aeruginosa ATCC 27883 [5]: 12.5 µg/mL (≈ 10.1 µM)

N=C(N)NCCC[C@@H]1NC(=O)[C@H](CCCNC(=N)N)NC(=O)[C@H](CCCNC(=N)N)NC(=O)[C@H](Cc2ccc3ccccc3c2)NC(=O)[C@H](Cc2ccc3ccccc3c2)NC(=O)[C@H](Cc2ccc3ccccc3c2)NC(=O)[C@H](Cc2ccc3ccccc3c2)NC(=O)[C@H](CCCNC(=N)N)NC1=O [IFX-006, c[Arg-Arg-Arg-Arg-NaI-NaI-NaI-NaI]] (cyclo([2Nal][2Nal][2Nal][2Nal]RRRR))
MIC E. coli ATCC 25922 [1]: 25 µg/mL (≈ 17.7 µM)
HC50 [2]: 120
MIC S. aureus ATCC 29213 [3]: 3.1 µg/mL (≈ 2.19 µM)
MIC MRSA ATCC BAA-1556 [4]: 6.2 µg/mL (≈ 4.39 µM)
MIC P. aeruginosa ATCC 27883 [5]: 50 µg/mL (≈ 35.4 µM)

N=C(N)NCCC[C@H](NC(=O)[C@@H](NC(=O)[C@@H](NC(=O)[C@H](CCCNC(=N)N)NC(=O)[C@H](CCCNC(=N)N)NC(=O)[C@@H](NC(=O)[C@@H](N)CCCNC(=N)N)C(c1ccccc1)c1ccccc1)C(c1ccccc1)c1ccccc1)C(c1ccccc1)c1ccccc1)C(=O)O [IFX-016-1, NH2-Arg-Dip-Arg-Arg-Dip-Dip-Arg-OH] (H-R[Dip]RR[Dip][Dip]R-OH)
MIC E. coli ATCC 25922 [1]: 25 µg/mL (≈ 19 µM)
HC50 [2]: 320
MIC S. aureus ATCC 29213 [3]: 12.5 µg/mL (≈ 9.52 µM)
MIC MRSA ATCC BAA-1556 [4]: 25 µg/mL (≈ 19 µM)
MIC P. aeruginosa ATCC 27883 [5]: >100 µg/mL

N=C(N)NCCC[C@@H]1NC(=O)[C@H](CCCNC(=N)N)NC(=O)[C@H](Cc2ccc3ccccc3c2)NC(=O)[C@H](Cc2ccc3ccccc3c2)NC(=O)[C@H](Cc2ccc3ccccc3c2)NC(=O)[C@H](CCCNC(=N)N)NC1=O [IFX-003, c[Arg-Arg-Arg-NaI-NaI-NaI]] (cyclo([2Nal][2Nal][2Nal]RRR))
MIC E. coli ATCC 25922 [1]: 25 µg/mL (≈ 23.6 µM)
HC50 [2]: 240
MIC S. aureus ATCC 29213 [3]: 3.1 µg/mL (≈ 2.92 µM)
MIC MRSA ATCC BAA-1556 [4]: 6.2 µg/mL (≈ 5.85 µM)
MIC P. aeruginosa ATCC 27883 [5]: 50 µg/mL (≈ 47.2 µM)

N=C(N)NCCC[C@@H]1NC(=O)[C@H](CCCNC(=N)N)NC(=O)[C@H](CCCNC(=N)N)NC(=O)[C@H](Cc2ccc3ccccc3c2)NC(=O)[C@H](Cc2ccc3ccccc3c2)NC(=O)[C@H](Cc2ccc3ccccc3c2)NC(=O)[C@H](CCCNC(=N)N)NC1=O [IFX-009, c[Arg-Arg-Arg-Arg-NaI-NaI-NaI]] (cyclo(RRRR[2Nal][2Nal][2Nal]))
MIC E. coli ATCC 25922 [1]: 25 µg/mL (≈ 20.6 µM)
HC50 [2]: 205
MIC S. aureus ATCC 29213 [3]: 1.5 µg/mL (≈ 1.23 µM)
MIC MRSA ATCC BAA-1556 [4]: 1.5 µg/mL (≈ 1.23 µM)
MIC P. aeruginosa ATCC 27883 [5]: 12.5 µg/mL (≈ 10.3 µM)

N=C(N)NCCC[C@H](NC(=O)[C@H](CCCNC(=N)N)NC(=O)[C@@H](N)CCCNC(=N)N)C(=O)N[C@@H](Cc1c[nH]c2ccccc12)C(=O)N[C@H](C(=O)N[C@H](C(=O)O)C(c1ccccc1)c1ccccc1)C(c1ccccc1)c1ccccc1 [IFX-020-1, NH2-R-R-R-Trp-Dip-Dip-OH] (H-RRRW[Dip][Dip]-OH)
MIC E. coli ATCC 25922 [1]: 6.2 µg/mL (≈ 5.54 µM)
HC50 [2]: 310
MIC S. aureus ATCC 29213 [3]: 6.2 µg/mL (≈ 5.54 µM)
MIC MRSA ATCC BAA-1556 [4]: 6.2 µg/mL (≈ 5.54 µM)
MIC P. aeruginosa ATCC 27883 [5]: 25 µg/mL (≈ 22.3 µM)

N=C(N)NCCC[C@H](NC(=O)[C@H](CCCNC(=N)N)NC(=O)[C@@H](N)CCCNC(=N)N)C(=O)N[C@@H](CCCNC(=N)N)C(=O)N[C@H](C(=O)N[C@H](C(=O)N[C@H](C(=O)O)C(c1ccccc1)c1ccccc1)C(c1ccccc1)c1ccccc1)C(c1ccccc1)c1ccccc1 [IFX-008-1, NH2-Arg-Arg-Arg-Arg-Dip-Dip-Dip-OH] (H-RRRR[Dip][Dip][Dip]-OH)
MIC E. coli ATCC 25922 [1]: 6.2 µg/mL (≈ 4.72 µM)
HC50 [2]: 210
MIC S. aureus ATCC 29213 [3]: 3.1 µg/mL (≈ 2.36 µM)
MIC MRSA ATCC BAA-1556 [4]: 3.1 µg/mL (≈ 2.36 µM)
MIC P. aeruginosa ATCC 27883 [5]: 6.2 µg/mL (≈ 4.72 µM)

N=C(N)NCCC[C@H](NC(=O)[C@H](CCCNC(=N)N)NC(=O)[C@@H](N)CCCNC(=N)N)C(=O)N[C@@H](Cc1ccc2ccccc2c1)C(=O)N[C@@H](Cc1ccc2ccccc2c1)C(=O)N[C@@H](Cc1c[nH]c2ccccc12)C(=O)O [IFX-025-1, NH2-R-R-R-NaI-NaI-Trp-OH] (H-RRR[2Nal][2Nal]W-OH)
MIC E. coli ATCC 25922 [1]: 25 µg/mL (≈ 23.4 µM)
HC50 [2]: 375
MIC S. aureus ATCC 29213 [3]: 12.5 µg/mL (≈ 11.7 µM)
MIC MRSA ATCC BAA-1556 [4]: 12.5 µg/mL (≈ 11.7 µM)
MIC P. aeruginosa ATCC 27883 [5]: 50 µg/mL (≈ 46.8 µM)

N=C(N)NCCC[C@H](NC(=O)[C@H](CCCNC(=N)N)NC(=O)[C@H](Cc1ccc2ccccc2c1)NC(=O)[C@H](Cc1ccc2ccccc2c1)NC(=O)[C@H](CCCNC(=N)N)NC(=O)[C@@H](N)CCCNC(=N)N)C(=O)N[C@@H](Cc1ccc2ccccc2c1)C(=O)O [IFX-019-1, NH2-Arg-Arg-NaI-NaI-Arg-Arg-NaI-OH] (H-RR[2Nal][2Nal]RR[2Nal]-OH)
MIC E. coli ATCC 25922 [1]: 25 µg/mL (≈ 20.3 µM)
HC50 [2]: 395
MIC S. aureus ATCC 29213 [3]: 12.5 µg/mL (≈ 10.1 µM)
MIC MRSA ATCC BAA-1556 [4]: 25 µg/mL (≈ 20.3 µM)
MIC P. aeruginosa ATCC 27883 [5]: 25 µg/mL (≈ 20.3 µM)

N=C(N)NCCC[C@H](NC(=O)[C@H](CCCNC(=N)N)NC(=O)[C@@H](N)CCCNC(=N)N)C(=O)N[C@@H](CCCNC(=N)N)C(=O)N[C@H](C(=O)N[C@H](C(=O)N[C@H](C(=O)N[C@H](C(=O)O)C(c1ccccc1)c1ccccc1)C(c1ccccc1)c1ccccc1)C(c1ccccc1)c1ccccc1)C(c1ccccc1)c1ccccc1 [IFX-005-1, NH2-Arg-Arg-Arg-Arg-Dip-Dip-Dip-Dip-OH] (H-RRRR[Dip][Dip][Dip][Dip]-OH)
MIC E. coli ATCC 25922 [1]: 50 µg/mL (≈ 32.6 µM)
HC50 [2]: 135
MIC S. aureus ATCC 29213 [3]: 6.2 µg/mL (≈ 4.04 µM)
MIC MRSA ATCC BAA-1556 [4]: 6.2 µg/mL (≈ 4.04 µM)
MIC P. aeruginosa ATCC 27883 [5]: 50 µg/mL (≈ 32.6 µM)

N=C(N)NCCC[C@H]1NC(=O)[C@@H](CCCNC(=N)N)NC(=O)[C@@H](CCCNC(=N)N)NC(=O)[C@@H](Cc2c[nH]c3ccccc23)NC(=O)[C@@H](Cc2c[nH]c3ccccc23)NC(=O)[C@@H](Cc2c[nH]c3ccccc23)NC(=O)[C@@H](Cc2c[nH]c3ccccc23)NC(=O)[C@@H](CCCNC(=N)N)NC1=O [IFX-032, c[arg-arg-arg-arg-trp-trp-trp-trp]] (cyclo([dR][dR][dR][dR][dW][dW][dW][dW]))
MIC E. coli ATCC 25922 [1]: 25 µg/mL (≈ 18.3 µM)
HC50 [2]: 230
MIC S. aureus ATCC 29213 [3]: 6.2 µg/mL (≈ 4.53 µM)
MIC MRSA ATCC BAA-1556 [4]: 6.2 µg/mL (≈ 4.53 µM)
MIC P. aeruginosa ATCC 27883 [5]: 25 µg/mL (≈ 18.3 µM)

N=C(N)NCCC[C@@H]1NC(=O)[C@H](CCCNC(=N)N)NC(=O)[C@H](CCCNC(=N)N)NC(=O)[C@H](Cc2ccc3ccccc3c2)NC(=O)[C@H](Cc2ccc3ccccc3c2)NC(=O)[C@H](CCCNC(=N)N)NC1=O [IFX-011, c[Arg-Arg-Arg-Arg-NaI-NaI]] (cyclo([2Nal][2Nal]RRRR))
MIC E. coli ATCC 25922 [1]: 50 µg/mL (≈ 49.1 µM)
HC50 [2]: 295
MIC S. aureus ATCC 29213 [3]: 6.2 µg/mL (≈ 6.08 µM)
MIC MRSA ATCC BAA-1556 [4]: 6.2 µg/mL (≈ 6.08 µM)
MIC P. aeruginosa ATCC 27883 [5]: 50 µg/mL (≈ 49.1 µM)

N=C(N)NCCC[C@@H]1NC(=O)[C@H](CCN)NC(=O)[C@@H](CCCNC(=N)N)NC(=O)[C@H](CCCNC(=N)N)NC(=O)[C@@H](Cc2ccc3ccccc3c2)NC(=O)[C@@H](Cc2ccc3ccccc3c2)NC(=O)[C@H](Cc2c[nH]c3ccccc23)NC(=O)[C@H](CCN)NC(=O)[C@@H](CCCNC(=N)N)NC1=O [IFX-059, c[Arg-arg-Dab-Arg-arg-Dab-Trp-naI-naI]] (cyclo([Dab]R[dR][Dab]W[d2Nal][d2Nal]R[dR]))
MIC E. coli ATCC 25922 [1]: 32 µg/mL (≈ 22.8 µM)
HC50 [2]: 780
MIC S. aureus ATCC 29213 [3]: 64 µg/mL (≈ 45.5 µM)
MIC MRSA ATCC BAA-1556 [4]: 128 µg/mL (≈ 91.1 µM)
MIC P. aeruginosa ATCC 27883 [5]: 32 µg/mL (≈ 22.8 µM)

N=C(N)NCCC[C@@H]1NC(=O)[C@H](CCN)NC(=O)[C@@H](CCCNC(=N)N)NC(=O)[C@H](CCCNC(=N)N)NC(=O)[C@@H](Cc2ccc3ccccc3c2)NC(=O)[C@@H](Cc2ccc3ccccc3c2)NC(=O)[C@H](Cc2c[nH]c3ccccc23)NC(=O)[C@@H](CCCNC(=N)N)NC1=O [IFX-055, c[Arg-arg-Dab-Arg-arg-Trp-naI-naI]] (cyclo([Dab]R[dR]W[d2Nal][d2Nal]R[dR]))
MIC E. coli ATCC 25922 [1]: 16 µg/mL (≈ 12.3 µM)
HC50 [2]: 575
MIC S. aureus ATCC 29213 [3]: 32 µg/mL (≈ 24.5 µM)
MIC MRSA ATCC BAA-1556 [4]: 32 µg/mL (≈ 24.5 µM)
MIC P. aeruginosa ATCC 27883 [5]: 32 µg/mL (≈ 24.5 µM)
